According to US9023875B2, “Macrocyclic compounds and methods of treatment” (University of Florida Research Foundation, Inc., priority 2007, dated 2015):
Where two headings read alike, the source gives them in different places. Starred links: 1 amine or outer side, 2 acyl side, 3 side chain; linkers in the order of their positions; H or OH if unused. Positions of bridges follow the written chain, without caps; N, C: chain ends. Non-standard residues stand in square brackets, D forms with d. Residues, ends and D or L forms follow the SMILES beside them. Chains are numbered I, II in the order given. Actinocin(9to1) = Cc1c2oc3c(C)ccc(C(=O)[*:1])c3nc-2c(C(=O)[*:2])c(N)c1=O; NMeV = CN[C@H](C(=O)O)C(C)C; Sar = CNCC(=O)O

What was measured:
[1] = test system: U2OS cells (fibroblastic osteosarcoma); assay: cells; type: cell-based; conditions: for GI50: read-out: Growth-inhibitory activity (GI50), U2OS
Protocol: (§1) Cell culture medium was purchased from Invitrogen and fetal bovine serum (FBS) from Hyclone. Cells were propagated and maintained in DMEM medium (high glucose) supplemented with 10% FBS at 37° C. humidified air and 5% CO2.
(§2) Cells suspended in DMEM containing 10% FBS were plated in 96-well plates (MDA-MB-231: 12,000 cells; NMuMG: 5,000 cells; U20S: 5,000 cells; HT29: 10,000 cells; 1MR-32: 30,000 cells; NIH3T3: 5,000 cells) incubated (37° C., 5% CO2) and 24 h later treated with various concentrations of compound 1 or solvent control (1% EtOH). After another 48 h of incubation, cell viability was measured using MITT according to manufacturer's instructions (Promega).
(§3) MDA-MB-231 and NMuMG cells were also treated with paclitaxel (in DMSO), actinomycin D (in DMSO) and doxorubicin (in H2O) and corresponding solvent control (1%) in the same manner. GI50 and LC50 values were calculated as previously described (K. D. Paull, E. Hamel, L. Malspeis, In Cancer Chemotherapeutic Agents, W. E. Foye, Ed., American Chemical Society, Washington, D.C., 1995, pp. 10-11).
(§4) [formula] [formula] [T=absorbance in treated wells (48 h); T0=absorbance at time zero; C=absorbance in control wells (48 h)]

[2] = test system: NIH3T3 cells (nontransformed fibroblasts); assay: cells; type: cell-based; conditions: for GI50: read-out: Growth-inhibitory activity (GI50), NIH3T3
Protocol: as §1, §2, §3, §4

[3] = test system: MDA-MB-231 cells (highly invasive transformed human mammary epithelial cells); assay: cells; type: cell-based
Protocol: as §1, §2, §3, §4

[4] = test system: NMuMG cells (nontransformed murine mammary epithelial cells); assay: in vitro; type: cell-based; conditions: 48 h, read-out: Growth-inhibitory activity (GI50), NMuMG
Protocol: as §1, §2, §3, §4

HDAC = assay: In vitro cellular HDAC activity assay (fluor de Lys substrate) in HCT-116 cells; type: cell-based; conditions: 8 h
Protocol: HCT-116 cells are seeded in 100 μL of medium per well at a density of 3.5×10^3 cells/well and grown for 24 h in a sterile 96-well solid bottom plate. The assay is carried out according to the manufacturer's instructions (BIOMOL). Briefly, after 24 h the medium iss replaced with 50 μL/well of medium containing 200 μM fluor de Lys™ substrate and 1 μM of trichostatin A (positive control) and test compounds (largazole, acetyl derivative) ranging from 1 μM to 3.2 nM ([…]) and thiol compound ranging from 10 μM to 300 pM. Plates are incubated at 37° C. for 8 h. After the treatment time, 50 μL per well of 1× fluor de Lys™ Developer containing TSA at 2 μM iss added. After developer addition, plates are incubated for 15 min at 37° C. and fluorescence is read (Ex 360 nm, Em 460 nm).

[5] = test system: HeLa nuclear extract HDACs (class I HDACs 1, 2, and 3); assay: Cell-free enzymatic assay with HDAC-enriched HeLa nuclear protein extract; type: biochemical; conditions: fluor de Lys substrate
Protocol: Largazole (1) inhibited HDAC activity from a HeLa cell nuclear protein extract rich in class I HDACs 1, 2, and 3 (BIOMOL); however, it is possible that the thioester is cleaved under assay conditions. To investigate that thiol 9 is a reactive species, we liberated 9 from the acetyl analog 8 of largazole (1) and measured enzymatic activity directly; thiol 9 inhibited the HDACs in the nuclear extract of HeLa cells with a similar IC50 value (Table 3).
Assay buffer (25 ul in blank and 10 ul in control), 1 μM triehostatin and test inhibitors (ranging from 10 μM to 300 pM) are added to test sample wells of the microtiter plate. HDAC-enriched nuclear protein extract from HeLa cells (BIOMOL) (5 μg in 15 uL) is added to all wells except in the no-enzyme control. The assay plate is equilibrated at 37° C., and then 25 μl of substrate fluor de Lys™ substrate is added to a final concentration of 116 μM. HDAC reaction is allowed to proceed for 15 min and then stopped by addition of 50 μl per well of 1× fluor de Lys™ Developer containing TSA at 2 μM. After developer addition, plates are incubated for 15 min at 37° C. and fluorescence is read (Ex 360 nm, Em 460 nm).

HCT-116 cells = assay: HCT-116 growth inhibition; type: cell-based; conditions: Homo sapiens
[6] = test system: HT29 cells (colon cancer cell line); assay: Cell viability (MTT) assay, HT29; type: cell-based; conditions: Homo sapiens, HT-29, 48 h
Protocol: as §1, §2, §3, §4

[7] = test system: IMR-32 cells (neuroblastoma cell line); assay: Cell viability (MTT) assay, IMR-32; type: cell-based; conditions: Homo sapiens, 48 h
Protocol: as §1, §2, §3, §4

in vitro = type: cell-based, murine; conditions: mouse, NMuMG cells, MTT, read-out: LC50 (cytotoxicity), NMuMG
Protocol: as §1, §2, §3, §4

acetylated histone H3 = assay: Immunoblot analysis of acetylated histone H3 in HCT-116 cells; type: cell-based; conditions: 8 h
Protocol: HCT-116 cells (650,000 cells/dish) are seeded in 10-cm dishes and 24 h later treated with various concentrations of largazole, trichostatin or solvent controls (EtOH for largazole and DMSO for trichostatin). Following incubation for 8 h, whole-cell lysates are prepared using PhosphoSafe lysis buffer (Novagen), proteins extracted, and protein concentration measured using the BCA method (Pierce). Cell lysates containing equal amounts of protein are separated by SDS-PAGE, transferred to PVDF membranes, probed with antibodies and detected with the Supersignal Femto Western blotting kit (Pierce). Anti-acetyl-histone H3 (Lys9/18) and anti-histone H3 primary antibodies are obtained from Millipore and horseradish peroxidase conjugated anti-rabbit secondary antibody is purchased from Cell Signaling.

[8] = Homo sapiens, U2OS cells, 48 h, MTT
[9] = Mus musculus, NIH3T3 cells, 48 h, MTT
[10] = Homo sapiens, MDA-MB-231, 48 h, MDA-MB-231 cells, 48 h, MTT, read-out: Growth-inhibitory activity (GI50), MDA-MB-231
[11] = Mus musculus, Epithelial cell, NMuMG cells, MTT

## Cc1c2oc3c(C)ccc(C(=O)N[C@@H]4C(=O)N[C@H](C(C)C)C(=O)N5CCC[C@H]5C(=O)N(C)CC(=O)N(C)[C@@H](C(C)C)C(=O)O[C@@H]4C)c3nc-2c(C(=O)N[C@@H]2C(=O)N[C@H](C(C)C)C(=O)N3CCC[C@H]3C(=O)N(C)CC(=O)N(C)[C@@H](C(C)C)C(=O)O[C@@H]2C)c(N)c1=O [Actinomycin D, reference compound] (I: T[dV]P[Sar][NMeV] / II: T[dV]P[Sar][NMeV]; ester I:1-I:C, II:1-II:C; linker I:N-II:N via Actinocin(9to1))
[1]; U2OS cells, 48 h, MTT
  GI50: 0.8 nM
[2]; NIH3T3 cells, 48 h, MTT
  GI50: 0.4 nM
[3]; MDA-MB-231 cells, 48 h, MTT, read-out: Growth-inhibitory activity (GI50), MDA-MB-231
  GI50: 0.5 nM
[4]; NMuMG cells, MTT
  GI50: 0.3 nM

## CC(=O)SCCC=CC1CC(=O)NCc2nc(cs2)C2=NC(C)(CS2)C(=O)NC(C(C)C)C(=O)O1 (centres unmarked) [Compound 8]
HDAC
  IC50: 50 ± 18 nM
[5]
  IC50: 52 ± 27 nM
HCT-116 cells
  GI50: 33 ± 2 nM

## CCCCCCCC(=O)SCC/C=C/[C@@H]1CC(=O)NCc2nc(cs2)C2=N[C@@](C)(CS2)C(=O)N[C@@H](C(C)C)C(=O)O1 [Largazole (1), largazole]
[6]
  GI50: 12 nM
[6]; read-out: LC50 (cytotoxicity), HT29
  CC50: 22 nM
HDAC
  IC50: 51 ± 3 nM
[7]
  GI50: 16 nM
[1]; Homo sapiens, U2OS, 48 h
  GI50: 55 nM
[1]; Homo sapiens, U2OS, 48 h, read-out: LC50 (cytotoxicity), U2OS
  CC50: 94 nM
[1]; U2OS vs NIH3T3 (GI50)
  Differential growth-inhibitory activity between transformed and nontransformed fibroblasts: 8 fold
[2]; Mus musculus, NIH3T3, 48 h
  GI50: 480 nM
[2]; NIH3T3 cells, 48 h, MTT
  Toxicity (cytotoxicity) in NIH3T3: no apparent toxicity
In vitro
  CC50 at 48 h: 272 nM
[3]; Homo sapiens, MDA-MB-231, 48 h, read-out: Growth-inhibitory activity (GI50), MDA-MB-231, MDA-MB-231 cells, 48 h, MTT
  GI50: 8 nM
[3]; MDA-MB-231 vs NMuMG (GI50)
  Differential growth-inhibitory activity between transformed and nontransformed epithelial cells: 15 fold
[3]; read-out: Growth-inhibitory activity (GI50), MDA-MB-231, MDA-MB-231 cells, 48 h, MTT
  GI50: 7.7 nM
[4]; Mus musculus, Epithelial cell
  GI50: 122 nM
[5]
  IC50: 37 ± 11 nM
Acetylated histone H3
  Immunoblot of endogenous HDAC substrate acetylated histone H3: same dose-response relationship
HCT-116 cells
  GI50: 44 ± 10 nM

## CC(C)C1NC(=O)C2(C)CSC(=N2)c2csc(n2)CNC(=O)CC(C=CCCS)OC1=O (centres unmarked) [Compound 9]
HDAC
  IC50: 209 ± 15 nM
[5]
  IC50: 42 ± 29 nM
HCT-116 cells
  GI50: 38 ± 5 nM

## COc1cccc2c1C(=O)c1c(O)c3c(c(O)c1C2=O)C[C@@](O)(C(=O)CO)C[C@@H]3O[C@H]1C[C@H](N)[C@H](O)[C@H](C)O1 [Doxorubicin, reference compound]
[1]; [8]
  GI50: 220 nM
[2]; [9]
  GI50: 47 nM
[3]; [10]
  GI50: 310 nM
[4]; [11]
  GI50: 63 nM

## CC(=O)O[C@H]1C(=O)[C@@]2(C)[C@H]([C@H](OC(=O)c3ccccc3)[C@]3(O)C[C@H](OC(=O)[C@H](O)[C@@H](NC(=O)c4ccccc4)c4ccccc4)C(C)=C1C3(C)C)[C@]1(OC(C)=O)CO[C@@H]1C[C@@H]2O [Paclitaxel, reference compound]
[1]; [8]
  GI50: 12 nM
[2]; [9]
  GI50: 6.4 nM
[3]; [10]
  GI50: 7 nM
[4]; [11]
  GI50: 5.9 nM
